# Read-outs that look alike come from different tables or passages of the source.
# Columns and labels:
# Bicuculline = Bicuculline test, mice; format: in vivo
# [1] = tested on: Pentylenetetrazol (Metrazol) seizure; test: sc Met--Subcutaneous Pentylenetetrazol (Metrazol) Seizure Threshold Test, rats; format: in vivo; settings: oral
# Protocol: (§1) The utility of the aforementioned compound as an anticonvulsant is determined by generating a compound profile using three tests. The tests employed are described in Epilepsia 19 (1978) 409-428 which is incorporated by reference.
# (§2) The animal is observed for 30 minutes. Failure to observe even a threshold seizure (a single episode of clonic spasms of at least 5 sec duration) is defined as protection and the results are expressed as: […]
# (§3) number of animals protected/number of animals tested.
# Strychnine = Strychnine test, mice; format: in vivo; settings: intraperitoneal
# [2] = Rotorod toxicity test (Tox), rats; format: in vivo; settings: for TD50: rat, in vivo, po
# Picrotoxin = Picrotoxin test, mice; format: in vivo; settings: intraperitoneal
# [3] = tested on: Maximal electroshock seizures; test: MES--Maximal Electroshock Seizure Test, mice; format: in vivo, male Carworth Farms No. 1 mice; settings: Mus musculus
# Source text: Maximal electroshock seizures are elicited with a 60 cycle alternating current of 50 mA intensity (5-7 times that necessary to elicit minimal electroshock seizures) delivered for 0.2 sec via corneal electrodes. A drop of 0.9% saline is instilled in the eye prior to application of the electrodes in order to prevent the death of the animal. Abolition of the hind limb tonic extension component of the seizure is defined as protection and results are expressed as:
# [4] = Rotorod toxicity test (Tox), mice; format: in vivo, male Carworth Farms No. 1 mice
# Protocol: The Rotorod test is used to evaluate neurotoxicity. The animal is placed on a 1 inch diameter knurled plastic rod rotating at 6 rpm. Normal mice can remain on a rod rotating at this speed indefinitely. Neurologic toxicity is defined as the failure of the animal to remain on the rod for 1 minute, and is expressed as:
# [5] = tested on: Pentylenetetrazol (Metrazol) seizure; test: sc Met--Subcutaneous Pentylenetetrazol (Metrazol) Seizure Threshold Test, mice; format: in vivo, male Carworth Farms No. 1 mice; settings: for ED50 sc Met: intraperitoneal
# Protocol: as §1
# The tests were performed by the National Institute of Neurological and Communicative Disorders and Stroke and used male Carworth Farms No. 1 mice. The compounds are employed at at least 3 dose levels (30, 100, 300 mg/kg) in the following three tests.
# sc Met--Subcutaneous Pentylenetetrazol (Metrazol®) Seizure Threshold Test
# as §2, §3
# [6] = tested on: Maximal electroshock seizures; test: MES--Maximal Electroshock Seizure Test, rats; format: in vivo; settings: Rattus norvegicus, oral
# Protocol: The utility of the aforementioned compound as an anticonvulsant is determined by generating a compound profile using three tests. The tests employed are described in Epilepsia 19 (1978) 409-428 which is incorporated by reference. Maximal electroshock seizures are elicited with a 60 cycle alternating current of 50 mA intensity (5-7 times that necessary to elicit minimal electroshock seizures) delivered for 0.2 sec via corneal electrodes. A drop of 0.9% saline is instilled in the eye prior to application of the electrodes in order to […]. Abolition of the hind limb tonic extension component of the seizure is defined as protection and results are expressed as: number of animals protected/number of animals tested.
# [7] = mouse, in vivo, po; cited from earlier work
# [8] = rat, in vivo, po; cited from earlier work
SMILES,"ED50 Bicuculline (Bicuculline; intraperitoneal, mice)",sc Met-ED50 [1],TD50 [2] [mg/kg],ED50 Picrotoxin (Picrotoxin),"ED50 ([3]; oral, read-out: MES-ED50) [mg/kg]",ED50 sc Met [5],sc Met-ED50 ([5]; oral),ED50 [6] [mg/kg],further results
"Cc1cc[n+]([O-])cc1Oc1ccccc1 [4-METHYL-3-PHENOXYPYRIDINE-1-OXIDE, 4-methyl-3-phenoxypyridine-1-oxide]",Potentiates,Potentiates,76.1,Potentiates,85.3,Potentiates,Potentiates,11.2,"ED50 Strychnine (Strychnine): Ineffective; ED50 ([3]; ip, intraperitoneal, read-out: ED50 MES): 23.2 mg/kg; TD50 ([4]; mouse, in vivo, ip): 76.2 mg/kg; TD50 ([4]; mouse, in vivo, po): 296 mg/kg"
NC(=O)N1c2ccccc2C=Cc2ccccc21 [CARBAMAZEPINE],,Variable,,,,Potentiates,,8.5,"Max. Prot. (Bicuculline) (Bicuculline; intraperitoneal, mice, at 50-130 mg/kg): 62.5%; ROTOROD TD50 ([2]; oral, rats): 813.06 mg/kg"
CCC1(c2ccccc2)NC(=O)N(C)C1=O (stereo not drawn) [MEPHENYTOIN],,,,,37,,,10,"ED50 (Bicuculline; Mus musculus, ip, read-out: ED50 Bicuculline): 124 mg/kg; ED50 ([1]; Rattus norvegicus): 105 mg/kg; Max. Prot. (Strychnine) (Strychnine; at 70-150 mg/kg): 50%; ROTOROD TD50 [7]: 97.0 mg/kg; TD50 ([4]; intraperitoneal, mice): 153.82 mg/kg; ED50 ([5]; Mus musculus, oral): 53 mg/kg; ROTOROD TD50 [8]: 143 mg/kg"
O=C1NC(=O)C(c2ccccc2)(c2ccccc2)N1 [PHENYTOIN],Potentiates,Ineffective,> 3000,Potentiates,,Potentiates,Ineffective,,Max. Prot. (Strychnine) (Strychnine; at 55-100 mg/kg): 50%

# Source: patent US4386094A, “4-Lower alkyl-3-phenoxypyridine-1-oxide and a method for its production” (priority 1980, dated 1983)
